The source of these data is ChEMBL document CHEMBL4020731, “Dimeric isoxazolyl-1,4-dihydropyridines have enhanced binding at the multi-drug resistance transporter” (Bioorg Med Chem, 2017).

The target in series [1] is MDR-1 (P-glycoprotein, ABCB1) (Homo sapiens, UniProt P08183). In words: (§1) Inhibition of MDR-1 in human Caco-2 cells at 10 uM after 30 mins by calcein-AM dye based fluorescence assay relative to cyclosporin. The series is classed as cell-based. The following applies: Caco-2 cells, probe calcein-AM.
MDR-1 (P-glycoprotein, ABCB1), sequence (P08183 whole entry): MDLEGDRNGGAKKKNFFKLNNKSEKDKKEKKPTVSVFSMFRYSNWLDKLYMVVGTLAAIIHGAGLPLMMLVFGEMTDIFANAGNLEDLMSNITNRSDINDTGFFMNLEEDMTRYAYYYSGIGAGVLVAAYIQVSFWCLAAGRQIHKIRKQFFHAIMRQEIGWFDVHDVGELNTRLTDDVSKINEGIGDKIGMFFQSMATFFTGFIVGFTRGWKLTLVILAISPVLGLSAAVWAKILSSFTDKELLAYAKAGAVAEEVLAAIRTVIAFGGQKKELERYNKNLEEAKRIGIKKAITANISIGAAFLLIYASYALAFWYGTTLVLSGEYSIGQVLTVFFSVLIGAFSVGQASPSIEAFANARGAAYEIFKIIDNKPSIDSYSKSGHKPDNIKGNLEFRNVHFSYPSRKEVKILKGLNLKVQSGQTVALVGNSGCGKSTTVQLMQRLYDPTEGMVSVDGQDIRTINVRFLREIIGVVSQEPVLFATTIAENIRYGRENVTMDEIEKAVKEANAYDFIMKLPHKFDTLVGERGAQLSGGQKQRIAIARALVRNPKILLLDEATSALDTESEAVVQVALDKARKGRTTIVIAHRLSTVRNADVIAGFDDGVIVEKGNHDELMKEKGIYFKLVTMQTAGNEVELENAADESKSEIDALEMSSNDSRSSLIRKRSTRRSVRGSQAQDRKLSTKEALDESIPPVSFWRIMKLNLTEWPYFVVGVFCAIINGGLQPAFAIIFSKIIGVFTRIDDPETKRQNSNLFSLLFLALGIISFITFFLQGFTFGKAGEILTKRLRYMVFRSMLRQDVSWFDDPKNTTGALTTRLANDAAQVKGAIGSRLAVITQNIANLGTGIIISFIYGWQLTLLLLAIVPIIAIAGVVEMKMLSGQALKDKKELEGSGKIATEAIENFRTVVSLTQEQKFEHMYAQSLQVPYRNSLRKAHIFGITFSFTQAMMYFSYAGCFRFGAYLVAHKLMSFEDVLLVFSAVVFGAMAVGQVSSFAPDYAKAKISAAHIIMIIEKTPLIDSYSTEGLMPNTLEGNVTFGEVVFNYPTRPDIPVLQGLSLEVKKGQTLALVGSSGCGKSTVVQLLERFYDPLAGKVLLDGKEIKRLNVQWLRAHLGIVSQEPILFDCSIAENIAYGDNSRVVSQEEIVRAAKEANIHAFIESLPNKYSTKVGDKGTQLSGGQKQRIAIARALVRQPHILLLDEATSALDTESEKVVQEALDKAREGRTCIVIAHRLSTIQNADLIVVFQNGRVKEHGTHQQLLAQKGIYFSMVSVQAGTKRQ
Series [2] addresses Voltage-gated L-type calcium channel (Homo sapiens, UniProt Q13936+Q13698+Q01668+O60840). In words: Displacement of [3H]PN-200110 from voltage-dependent L-type calcium channel (unknown origin) by scintillation counting method. In general terms: In a radioligand displacement assay an active substance lowers the binding of a labelled ligand.
For series [3], the target named is Metabotropic glutamate receptor 5 (Rattus norvegicus) (UniProt P31424). In words: Displacement of [3H]MPEP from rat brain mGluR5 expressed in CHO cells by scintillation counting method. The series is classed as cell-based.
Metabotropic glutamate receptor 5 (Rattus norvegicus), sequence (P31424 21-1203 limits assumed): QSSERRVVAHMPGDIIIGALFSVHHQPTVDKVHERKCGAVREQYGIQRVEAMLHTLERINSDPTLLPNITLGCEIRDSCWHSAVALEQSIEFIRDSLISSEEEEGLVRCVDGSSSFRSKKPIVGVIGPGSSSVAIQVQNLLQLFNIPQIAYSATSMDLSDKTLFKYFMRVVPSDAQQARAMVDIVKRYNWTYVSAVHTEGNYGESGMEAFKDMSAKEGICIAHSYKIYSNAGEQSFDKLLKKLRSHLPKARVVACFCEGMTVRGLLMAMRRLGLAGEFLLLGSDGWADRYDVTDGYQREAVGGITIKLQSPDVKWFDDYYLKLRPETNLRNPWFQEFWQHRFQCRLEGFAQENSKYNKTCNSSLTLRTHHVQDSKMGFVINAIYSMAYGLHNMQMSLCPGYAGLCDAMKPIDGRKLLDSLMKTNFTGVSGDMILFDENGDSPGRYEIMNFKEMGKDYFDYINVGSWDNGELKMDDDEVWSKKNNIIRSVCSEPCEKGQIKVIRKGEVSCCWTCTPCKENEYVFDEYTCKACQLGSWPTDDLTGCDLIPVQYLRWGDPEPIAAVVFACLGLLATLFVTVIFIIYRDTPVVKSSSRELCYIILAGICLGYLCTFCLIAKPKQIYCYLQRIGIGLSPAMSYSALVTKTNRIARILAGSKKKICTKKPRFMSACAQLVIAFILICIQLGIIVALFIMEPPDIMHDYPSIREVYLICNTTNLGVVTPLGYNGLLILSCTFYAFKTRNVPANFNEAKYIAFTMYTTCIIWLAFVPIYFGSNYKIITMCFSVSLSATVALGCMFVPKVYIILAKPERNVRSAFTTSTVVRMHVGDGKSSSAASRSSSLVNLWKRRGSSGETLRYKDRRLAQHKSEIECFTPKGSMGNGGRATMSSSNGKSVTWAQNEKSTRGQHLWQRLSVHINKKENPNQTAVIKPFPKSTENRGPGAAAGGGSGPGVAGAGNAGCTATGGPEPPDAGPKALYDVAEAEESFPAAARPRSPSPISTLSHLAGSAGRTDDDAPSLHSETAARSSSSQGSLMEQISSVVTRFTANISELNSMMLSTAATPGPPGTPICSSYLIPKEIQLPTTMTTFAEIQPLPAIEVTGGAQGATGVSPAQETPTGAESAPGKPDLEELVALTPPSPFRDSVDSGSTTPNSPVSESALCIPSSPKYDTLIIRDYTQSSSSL
Series [4] deals with T1, ATP-dependent translocase ABCB1 (Homo sapiens, UniProt P08183). The series can be described thus: Inhibition of MDR-1 in human Caco-2 cells after 30 mins by calcein-AM dye based fluorescence assay. The series is classed as cell-based.
T1 sequence (P08183 whole entry): as the sequence (P08183 whole entry) above
Series [5] addresses T1, ATP-dependent translocase ABCB1. The series is described as §1. The following applies: 0.5 h, 10 µM. The series is classed as cell-based.

The structures appear in SMILES notation.

In general, inhibition refers to the drop in the measured response relative to a control, in per cent. As a reminder, the IC50 is the concentration at which inhibition is half-maximal. Usually Ki stands for the dissociation constant of the complex between target and ligand, obtained from inhibition or displacement. Read a low Ki as tighter binding. On to `CCOC(=O)C1=C(C)NC(C)=C(C(=O)OCc2cn(CCOCCOCCOCCOCCOCCn3cc(COC(=O)C4=C(C)NC(C)=C(C(=O)OCC)C4c4c(-c5ccccc5Br)noc4C)nn3)nn2)C1c1c(-c2ccccc2Br)noc1C` (stereo not given), for which the inhibition at 0.5 h, 10 µM in series [1] was 17.7%. Moreover, the values for the IC50 in series [2] and in series [4] were greater than 10000 nM and 2860 nM, respectively. The compound further registered a Ki in series [3] of 4860 nM.

In the case of `CCOC(=O)C1=C(C)NC(C)=C(C(=O)OCC)C1c1c(-c2ccccc2Br)noc1C`, the inhibition at 0.5 h, 10 µM in series [1] is -12%. The IC50 in series [2] was 909 nM; in series [4], greater than 10000 nM. Besides, affinity in series [3] was put at a Ki of 1520 nM.

For the compound `CCOC(=O)c1c(C)nc(C)c(C(=O)OCC)c1-c1c(-c2ccccc2)noc1C`, the inhibition at 0.5 h, 10 µM in series [1] was 36.9%. In addition, the IC50 in series [2] and in series [4] was greater than 10000 nM each time. In series [3], this compound came in with a Ki greater than 10000 nM.

Take `CCOC(=O)C1=C(C)NC(C)=C(C(=O)OCc2cn(CCOCCOCCOCCOCCOCCn3cc(COC(=O)C4=C(C)NC(C)=C(C(=O)OCC)C4c4c(-c5ccccc5)noc4C)nn3)nn2)C1c1c(-c2ccccc2)noc1C` (stereo not given): the inhibition at 0.5 h, 10 µM in series [1] is 20.4%. Further, the IC50 in series [2] and in series [4] was greater than 10000 nM each time. Besides, the Ki in series [3] was greater than 10000 nM.

On to `CCOC(=O)C1=C(C)NC(C)=C(C(=O)OCc2cn(CCOCCOCCOCCn3cc(COC(=O)C4=C(C)NC(C)=C(C(=O)OCC)C4c4c(-c5ccc(Br)cc5)noc4C)nn3)nn2)C1c1c(-c2ccc(Br)cc2)noc1C` (stereo not given), for which the inhibition at 0.5 h, 10 µM in series [1] was 11.6%. Also, the IC50 in series [2] is 516 nM; in series [4] it was 3230 nM. Further, in series [3], the Ki is 546 nM.

By pIC50 is commonly meant the IC50 on a negative log10 scale, so that one unit is a factor of ten. On to `CCOC(=O)C1=C(C)NC(C)=C(C(=O)OCC)C1c1c(-c2ccc(Br)cc2)noc1C`, for which the inhibition at 0.5 h, 10 µM in series [1] was 58.4%. Besides, the IC50 in series [2] is 36 nM; in series [4], 3100 nM. Moreover, the pIC50 in series [2] is recorded as 7.44. In series [3], this compound returned a Ki greater than 10000 nM.

As to `CCOC(=O)C1=C(C)NC(C)=C(C(=O)OCc2cn(CCOCCOCCOCCOCCOCCn3cc(COC(=O)C4=C(C)NC(C)=C(C(=O)OCC)C4c4c(-c5cccc(Br)c5)noc4C)nn3)nn2)C1c1c(-c2cccc(Br)c2)noc1C` (stereo not given), the “inhibition (INH)” value in series [5] is 150.8%. Also, the half-maximal inhibitory concentration (IC50) in series [2] is 3766 nM; in series [4] it was 1300 nM. Further, the affinity in series [3], expressed as Ki, was 8640 nM.

Regarding `CCOC(=O)C1=C(C)NC(C)=C(C(=O)OCc2cn(CCOCCOCCOCCOCCOCCn3cc(COC(=O)C4=C(C)NC(C)=C(C(=O)OCC)C4c4c(-c5ccc(Br)cc5)noc4C)nn3)nn2)C1c1c(-c2ccc(Br)cc2)noc1C` (stereo not given), in series [5], the “inhibition (INH)” value is 172.6%. In addition, the values for the IC50 in series [2] and in series [4] were 2706 nM and 1390 nM, respectively. In series [3], this compound showed a Ki of 193 nM.

For `CCOC(=O)C1=C(C)NC(C)=C(C(=O)OCc2cn(CCOCCOCCn3cc(COC(=O)C4=C(C)NC(C)=C(C(=O)OCC)C4c4c(-c5ccc(Br)cc5)noc4C)nn3)nn2)C1c1c(-c2ccc(Br)cc2)noc1C` (stereo not given), the inhibition at 0.5 h, 10 µM in series [1] was 41.9%. Moreover, the results for the IC50 in series [2] and in series [4] were 603 nM and 1450 nM, respectively. The same compound had a Ki in series [3] of 933 nM.

Regarding `CCOC(=O)C1=C(C)NC(C)=C(C(=O)OCC)C1c1c(-c2cccc(Br)c2)noc1C`, the inhibition at 0.5 h, 10 µM in series [1] is 102%. Besides, the IC50 in series [2] is 208 nM; in series [4], 510 nM. In series [3], this compound registered a Ki greater than 10000 nM.

`CCOC(=O)C1=C(C)NC(C)=C(C(=O)OCc2cn(CCc3ccccc3)nn2)C1c1c(-c2ccc(Br)cc2)noc1C` (stereo not given): the inhibition at 0.5 h, 10 µM in series [1] is 108%. For the same compound, the IC50 in series [2] is 127 nM; in series [4], 1640 nM. This compound gave a Ki in series [3] of 1970 nM.
